Here are results for two molecules from US9511042B2, “N-acyl amino acid derivatives for treating skin conditions such as cellulite” (HELIX BIOMEDIX INC., priority 2010, dated 2016).

Data set [1] has as its system 3T3-L1 adipocytes. Kind of data set: Lipolysis: free fatty acid release in differentiated adipocytes (BioVision Free Fatty Acid Quantification Kit). The format is cell-based, murine. The note with it: 100 μg/ml, overnight; for free fatty acids production in adipocytes relative to known lipolysis inducers (FIG. 4): compared with carnitine, resveratrol, isoproterenol, aminophylline, theophylline, caffeine. The procedure: The degree of fatty acid release can be used to gauge the relative level of glycerol release given this correlation. The following methods were used to determine the effect of 4-methyl-2-(octanoylamino) pentanoic acid and N-isopentyloctanamide on lipolysis in adipocytes.
(§1) The induction of lipolysis in differentiated adipocytes was determined in 3T3-L1 adipocytes using a fatty acid assay kit manufactured by BioVision (Mountain View, Calif.) (Free Fatty Acid Quantification Kit, Cat. No. K612-100). Free fatty acid release correlates with an increase in the level of glycerol. Adipocytes for these assays were prepared as follows. 3T3-L1 murine pre-adipocytes were purchased from the American Type Culture Collection (ATCC) (CL-173™). The cells were cultured in complete medium (ATCC-formulated Dulbecco's Modified Eagle's Medium supplemented with 10% bovine calf serum) and allowed to reach 100% confluence. The induction of differentiation or adipogenesis was carried out in complete medium. On day 0, cells were treated with complete medium containing induction agents (100 μg/ml isobutylmethyxanthine (Sigma, St. Louis, Mo.), 5 μg/ml insulin and 2 μg/ml dexamethasone). On day 3, cells were changed to complete medium containing 5 μg/ml insulin and incubated for 2-3 days. Then, cells were maintained in complete medium for 3-6 days when the majority of cells developed observable intracellular lipid droplets.
For analyzing the effects of 4-methyl-2-(octanoylamino) pentanoic acid and N-isopentyloctanamide on lipolysis, cells (adipocytes prepared above) were treated with either of these compounds at 100 μg/ml. Alternatively, cells were treated overnight with certain substances (e.g., resveratrol, isoproterenol, aminophylline, theophylline) (100 μg/ml) previously known to be lipolysis inducers. Supernatant from each of the cultures was measured for relative glycerol release as estimated using the free fatty acid quantification kit from BioVision following the manufacturer's instructions.

A further data set concerns 3T3-L1 preadipocytes. Kind of data set: Adipogenesis assay, Oil red O staining of lipid droplets (Cayman Adipogenesis Assay Kit). The data set is classed as cell-based, murine. The method, then:
as §1
Intracellular lipid droplet production in adipocytes is a feature of adipogenesis. Therefore, adipogenesis was monitored by staining for lipid droplets in cells using the Adipogenesis Assay Kit from Cayman (Ann Arbor, Mich.) following the manufacture's instructions. […]

The next data set relates to EpiDerm™ Skin Model. The data set is described as follows: EpiDerm MTT assay for cytotoxicity toward skin tissue. The data set is classed as cell-based. The note with it: for cell viability (OD570) compared to the glycerin vehicle: 100 μg/ml, 2, 5 and 18 hour incubation (FIG. 7); for toxicity to skin tissue: 1 mg/ml for 24 hours (data not shown). For orientation: Tetrazolium dyes change colour on reduction, which living cells bring about.

Data set [2] relates to 3T3-L1 adipocytes. Kind of data set: Cytotoxicity to adipocytes at the concentrations used to stimulate lipolysis. The data set is classed as cell-based, murine. The note with it: at the concentrations used to stimulate lipolysis (data not shown). From the text: Both HB2031 and HB2032 were not cytotoxic to 3T3-L1 adipocytes at the concentrations used to simulate lipolysis (data not shown).

Regarding `CCCCCCCC(=O)NCCC(C)C` [HB2032, N-isopentyloctanamide], in the data set with 3T3-L1 adipocytes [1], the “free fatty acids production compared with isoproterenol, assay in triplicate (FIG. 5)” value is reported as “significantly more active than isoproterenol” and the “free fatty acids production in adipocytes relative to known lipolysis inducers (FIG. 4)” value was “to a higher degree than all the other compounds tested”. The “differentiation of cells into adipocytes (enlarged cells, intracellular lipid droplets)” value with 3T3-L1 preadipocytes (100, 150, 200 μg/ml with adipogenesis inducers for nine days, concentration dependent (FIG. 6C-E)) was “inhibited the differentiation of cells into adipocytes”. Also, the “intensity of cellular lipid formation (Oil red O staining)” value in the data set on 3T3-L1 preadipocytes (low concentration (FIG. 6C, 100 μg/ml), nine days) is “significantly reduced”. Besides, in the data set on EpiDerm™ Skin Model, the “cell viability (OD570) compared to the glycerin vehicle” value is reported as “no difference in cell viability” and the “toxicity to skin tissue” value is “no toxicity”. In the data set with 3T3-L1 adipocytes [2], the “cytotoxicity to 3T3-L1 adipocytes” value is on record as “not cytotoxic”.
Consider `CCCCCCCC(=O)NC(CC(C)C)C(=O)O` (stereo not drawn) [HB2031, 4-methyl-2-(octanoylamino) pentanoic acid], for which, in the data set on 3T3-L1 adipocytes [1], the “free fatty acids production compared with isoproterenol, assay in triplicate (FIG. 5)” value is given as “significantly more active than isoproterenol” and the “free fatty acids production in adipocytes relative to known lipolysis inducers (FIG. 4)” value is listed as “to a higher degree than all the other compounds tested”. Also, in the data set with EpiDerm™ Skin Model, the “cell viability (OD570) compared to the glycerin vehicle” value is listed as “no difference in cell viability” and the “toxicity to skin tissue” value is “no toxicity”. The “cytotoxicity to 3T3-L1 adipocytes” value in the data set on 3T3-L1 adipocytes [2] is “not cytotoxic”.
